# Legend:
# [1] = target: T1, 4-galactosyl-N-acetylglucosaminide 3-alpha-L-fucosyltransferase FUT6 (Homo sapiens, UniProt P51993); assay: Inhibitory concentration required against Fucosyltransferase 6
# T1 sequence (P51993 whole entry): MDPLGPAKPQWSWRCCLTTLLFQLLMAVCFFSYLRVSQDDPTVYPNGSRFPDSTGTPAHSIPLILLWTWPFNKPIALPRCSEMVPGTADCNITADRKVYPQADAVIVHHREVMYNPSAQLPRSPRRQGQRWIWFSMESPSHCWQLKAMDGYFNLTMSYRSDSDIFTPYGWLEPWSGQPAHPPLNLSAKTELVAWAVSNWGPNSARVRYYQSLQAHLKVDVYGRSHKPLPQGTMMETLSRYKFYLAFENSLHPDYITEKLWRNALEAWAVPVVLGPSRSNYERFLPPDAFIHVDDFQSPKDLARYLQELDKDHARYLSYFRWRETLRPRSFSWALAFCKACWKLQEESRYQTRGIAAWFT
# [2] = target: T1, 4-galactosyl-N-acetylglucosaminide 3-alpha-L-fucosyltransferase FUT6; assay: Compound was tested for binding affinity against Fucosyltransferase 6
IC50 [1] [µM],Ki [2] [µM],Structure (SMILES)
3.96,1.07,Nc1nc2c(ncn2C2O[C@H](COP(=O)(O)OP(=O)(O)OCc3cn(CCCC(=O)NC(Cc4ccccc4)c4ccccc4)nn3)[C@@H](O)[C@H]2O)c(=O)[nH]1 (stereo not given in full)
1.89,0.511,Nc1nc(O)c2ncn(C3O[C@H](COP(=O)(O)OP(=O)(O)OCc4cn(CCCCC(=O)NC5=CC6C(=O)c7ccccc7C(=O)C6C=C5)nn4)[C@@H](O)[C@H]3O)c2n1 (stereo not given in full)
3.34,0.901,Nc1nc2c(ncn2C2O[C@H](COP(=O)(O)OP(=O)(O)OCc3cn(CCC(=O)NCc4cccc5ccccc45)nn3)[C@@H](O)[C@H]2O)c(=O)[nH]1 (stereo not given in full)

# Second part, the compound before the results:
Structure (SMILES),IC50 [1] [µM],Ki [2] [µM]
Nc1nc(O)c2ncn(C3O[C@H](COP(=O)(O)OP(=O)(O)OCc4cn(CCCCC(=O)NC(Cc5ccccc5)c5ccccc5)nn4)[C@@H](O)[C@H]3O)c2n1 (stereo not given in full),1.39,0.376
Nc1nc(O)c2ncn(C3O[C@H](COP(=O)(O)OP(=O)(O)OCc4cn(CC(=O)NC(Cc5ccccc5)c5ccccc5)nn4)[C@@H](O)[C@H]3O)c2n1 (stereo not given in full),1.62,0.437
